As usually defined, the Ki is the dissociation constant of the complex between target and ligand, obtained from inhibition or displacement. By EC50 is commonly meant the concentration at which the effect is half-maximal. The low end stands for an effect from little substance, the high end for a need for much substance. As usually defined, the Emax is the size of the effect at its maximum, as opposed to the concentration needed. What is called pKb is −log10 of the Kb, conventionally taken in molar units.

Calls of active or inactive are those of the source. The rule behind the calls is not given here. A value given as a limit tells only on which side of the number the result lay.

Test [1] addresses T1, Melatonin receptor type 1A (Homo sapiens, UniProt P48039). In words: Displacement of 2-[125I]Iodomelatonin from human MT1 receptor expressed in CHO cell membranes after 120 mins.
For test [2], the target named is T2, Melatonin receptor type 1B (Homo sapiens, UniProt P49286).
T2 sequence (P49286 whole entry): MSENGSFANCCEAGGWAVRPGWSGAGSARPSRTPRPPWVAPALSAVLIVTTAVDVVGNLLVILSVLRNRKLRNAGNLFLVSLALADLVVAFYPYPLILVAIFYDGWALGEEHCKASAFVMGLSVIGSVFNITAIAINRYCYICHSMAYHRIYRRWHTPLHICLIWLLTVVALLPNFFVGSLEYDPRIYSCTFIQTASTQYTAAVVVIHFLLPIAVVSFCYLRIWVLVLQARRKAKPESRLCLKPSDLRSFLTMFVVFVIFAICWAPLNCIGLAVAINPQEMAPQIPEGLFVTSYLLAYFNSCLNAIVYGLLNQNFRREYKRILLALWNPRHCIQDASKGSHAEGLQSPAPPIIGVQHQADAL
In words: Displacement of 2-[125I]Iodomelatonin from human MT2 receptor expressed in CHO cell membranes after 120 mins.

Test [3] has as its target T3, 5-hydroxytryptamine receptor 2C (Homo sapiens, UniProt P28335).
T3 sequence (P28335 whole entry): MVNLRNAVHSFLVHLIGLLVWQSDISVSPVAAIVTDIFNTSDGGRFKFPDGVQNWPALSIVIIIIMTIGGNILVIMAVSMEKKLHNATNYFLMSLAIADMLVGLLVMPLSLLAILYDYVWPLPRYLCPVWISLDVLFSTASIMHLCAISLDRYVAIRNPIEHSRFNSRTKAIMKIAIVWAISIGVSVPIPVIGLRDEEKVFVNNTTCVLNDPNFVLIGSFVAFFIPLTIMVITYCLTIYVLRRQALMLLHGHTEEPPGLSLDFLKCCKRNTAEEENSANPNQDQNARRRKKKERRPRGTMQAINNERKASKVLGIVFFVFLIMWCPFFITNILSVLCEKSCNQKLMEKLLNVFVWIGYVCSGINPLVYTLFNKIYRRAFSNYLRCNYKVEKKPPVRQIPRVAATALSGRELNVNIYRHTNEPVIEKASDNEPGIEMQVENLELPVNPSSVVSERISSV
The test can be described thus: Displacement of [3H]mesulergine from human 5HT2C (VSV) receptor expressed in CHO cell membranes after 60 mins by scintillation counting method.

The target of test [4] is T1, Melatonin receptor type 1A. The test can be described thus: Agonist activity at human MT1 receptor expressed in CHO cells after 1 hr by [35S]GTPgammaS binding assay. The class given is functional, cell-based. In general terms: GTPγS is a poorly hydrolysed GTP analogue; its binding reports G protein activation.
Test [5] concerns the target T2, Melatonin receptor type 1B. The test can be described thus: Agonist activity at human MT2 receptor expressed in CHO cells after 1 hr by [35S]GTPgammaS binding assay. The class given is functional, cell-based.
Test [6] concerns the target T1, Melatonin receptor type 1A. In words: Partial agonist activity at human MT1 receptor expressed in CHO cells after 1 hr by [35S]GTPgammaS binding assay. The test is classed as functional, cell-based.
For test [7], the target named is T4, Melatonin receptor type 1B (Homo sapiens) (UniProt P49286).
T4 sequence (whole entry): T2 sequence (P49286 whole entry)
The test can be described thus: (§1) Partial agonist activity at human MT2 receptor expressed in CHO cells after 1 hr by [35S]GTPgammaS binding assay. The test is classed as functional, cell-based.

In test [8] the target is T2, Melatonin receptor type 1B. The test is described as §1. The test is classed as functional, cell-based.
In test [9] the target is T5, 5-hydroxytryptamine receptor 2C (Homo sapiens) (UniProt P28335).
T5 sequence (whole entry): T3 sequence (P28335 whole entry)
In words: Antagonist activity at human 5HT2C (VSV) receptor expressed in CHO cells assessed as inhibition of 5-HT-induced [3H]inositol phosphate production preincubated for 20 mins followed by 5-HT addition. The test is classed as functional, cell-based.

For test [10], the system named is Mus musculus. In words: Antidepressant activity in OF1 mouse assessed as reduction in immobility time at 0.1 mg/kg administered 40 mins prior to testing measured for 6 mins by tail suspension test. The test is classed as functional, organism-based.
The target of test [11] is T5, 5-hydroxytryptamine receptor 2C (Homo sapiens). The test can be described thus: Antagonist activity at human 5HT2C (VSV) receptor expressed in CHO cells assessed as inhibition of 5-HT-induced [3H]inositol phosphate production preincubated for 20 mins followed by 5-HT addition relative to 5-HT. The class given is functional, cell-based.
The test system of test [12] is Mus musculus. In words: Antidepressant activity in OF1 mouse assessed as reduction in immobility time at 1 to 10 mg/kg administered 40 mins prior to testing measured for 6 mins by tail suspension test. The test is classed as functional, organism-based.
For a further test, the species on record is Homo sapiens. In words: Selectivity ratio of Ki for human MT1 receptor to Ki for human MT2 receptor.
Test [13] relates to Mus musculus. In words: Antidepressant activity in OF1 mouse assessed as reduction in immobility time at 0.1 to 10 mg/kg administered 40 mins prior to testing measured for 6 mins by tail suspension test. The class given is functional, organism-based.
Test [14] relates to Mus musculus. The test can be described thus: Antidepressant activity in OF1 mouse assessed as reduction in immobility time at 64 mg/kg administered 40 mins prior to testing measured for 6 mins by tail suspension test. The test is classed as functional, organism-based.
Test [15] addresses T1, Melatonin receptor type 1A. The test can be described thus: Binding affinity to MT1 receptor (unknown origin).
The target in test [16] is T2, Melatonin receptor type 1B. The test can be described thus: Binding affinity to MT2 receptor (unknown origin).

T1 sequence (P48039 whole entry): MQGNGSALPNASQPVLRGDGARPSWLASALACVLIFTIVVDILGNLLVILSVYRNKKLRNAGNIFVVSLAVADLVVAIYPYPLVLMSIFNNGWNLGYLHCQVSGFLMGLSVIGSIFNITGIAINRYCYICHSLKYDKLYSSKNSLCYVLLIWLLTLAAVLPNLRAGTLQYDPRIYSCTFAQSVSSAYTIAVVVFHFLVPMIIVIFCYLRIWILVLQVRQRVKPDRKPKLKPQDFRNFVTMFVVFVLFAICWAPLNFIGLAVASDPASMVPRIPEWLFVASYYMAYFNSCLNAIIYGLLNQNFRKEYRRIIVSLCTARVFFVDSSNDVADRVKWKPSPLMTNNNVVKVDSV

In the case of `COc1ccc2cccc(C(CO)CNC(C)=O)c2c1` (stereo not drawn), the results for the Ki in test [1], in [2] and in test [3] were 11 nM, 13.8 nM and 229 nM, respectively. Moreover, the 50% effective concentration (EC50) is 72.4 nM in test [4] and 145 nM in test [5].
For `CCC(=O)NCC(CO)c1cccc2ccc(OC)cc12` (racemic), in that order: 1.35 nM, 2.95 nM, 708 nM, 49 nM and 2.75 nM.
Turning to `COc1ccc2cccc(C(CO)CNC(=O)CF)c2c1` (racemic), the Ki in test [2] is 0.537 nM; in test [3] it was 166 nM. For the same compound, the half-maximal effective concentration (EC50) in test [4] was 25.1 nM; in test [5], 0.631 nM.
For the compound `CCC(=O)NC[C@H](CO)c1cccc2ccc(OC)cc12`, the results for the inhibitory constant (Ki) in test [1], in test [2] and in test [3] were 3.39 nM, 0.316 nM and 417 nM, respectively. Besides, the EC50 in test [6] was 19.5 nM; in test [8] it was 1.26 nM. Also, the figures for the Emax in [6] and in test [7] were 59% and 107%, respectively. Moreover, in [9], the pKb was determined as 6. The result in the test with Mus musculus [10] was inactive. In addition, the Imax in test [11] came out at 79%. For the same compound, the Activity result in the test on Mus musculus [12] is “Dose-dependent effect”.
On to `CCC(=O)NC[C@@H](CO)c1cccc2ccc(OC)cc12`, for which the results for the inhibition constant Ki in test [1], in test [2] and in [3] were 182 nM, 5.5 nM and greater than 10000 nM, respectively. The Ratio Ki in the test filed under Homo sapiens was 53. Moreover, the results for the EC50 in test [4] and in test [5] were 389 nM and 7.41 nM, respectively. In addition, the result in the test on Mus musculus [13] was inactive.
Regarding `COc1ccc2cccc(C(CO)CNC(=O)C(F)F)c2c1` (stereo not drawn), the Ki in test [1] is 1.91 nM; in [2], 0.347 nM; in [3] it was 692 nM. The EC50 in [4] is 10.2 nM; in [5], 0.372 nM.
As for `COc1ccc2cccc([C@H](CO)CNC(=O)CF)c2c1`, the Ki in test [1] is 347 nM; in [2], 52.5 nM; in test [3], greater than 10000 nM. Further, the Ratio Ki in the test filed under Homo sapiens is 7. Also, the 50% effective concentration (EC50) in test [4] is 1050 nM; in test [5], 25.1 nM. Also, in the test with Mus musculus [13], the outcome was inactive.
Regarding `CN(C)CCCN1c2ccccc2CCc2ccccc21`, the outcome in the test with Mus musculus [14] was Active.
As for `COc1ccc2cccc([C@@H](CO)CNC(=O)CF)c2c1`, the Ki was 5.89 nM in test [1], 0.977 nM in test [2] and 186 nM in test [3]. The EC50 is 79.4 nM in test [6] and 0.794 nM in [8]. Also, the values for the Emax in test [6] and in test [7] were 62% and 99%, respectively. In addition, the pKb in [9] came out at 6.3. In addition, the outcome in the test on Mus musculus [13] was Active. Moreover, the Imax in test [11] was found to be 97%.
In the case of `COc1ccc2cccc(CCNC(C)=O)c2c1`, the Imax in test [11] worked out at 98%.
For `COc1cc2c([C@@H](C)CNC(C)=O)c[nH]c2cc1Cl`, the results for the Ki in test [15] and in test [16] were 0.0794 nM and 0.0398 nM, respectively.

The values above are taken from ChEMBL document CHEMBL4002541 (Medchemcomm, 2014).
